In patent US20100056502A1, “COMPOUNDS” (GLAXO GROUP LIMITED, priority 2007, published 2010) one finds MIC data, which are given here for five molecules.

Each structure is given as a SMILES string. Where a name gives a salt, the structure may show the parent alone.

For the assay, the system named is Mycobacterium tuberculosis H37Rv. As to the kind of experiment: Mycobacterium tuberculosis H37Rv Inhibition Assay. Type of assay: cell-based. As to conditions: ATCC 25618 / H37Rv, H37Rv strain (ATCC25618), resazurin fluorescence readout. The method, then: The measurement of the minimum inhibitory concentration (MIC) for each tested compound was performed in 96 wells flat-bottom, polystyrene microtiter plates. Ten two-fold drug dilutions in neat DMSO starting at 400 μM were performed. Five μl of these drug solutions were added to 95 μl of Middlebrook 7H9 medium. (Lines A-H, rows 1-10 of the plate layout). Isoniazid was used as a positive control, 8 two-fold dilution of Isoniazid starting at 160 μgml^−1 was prepared and 5 μl of this control curve was added to 95 μl of Middlebrook 7H9 (Difco catalogue Ref. 271310)+ADC medium (Becton Dickinson Catalogue Ref. 211887). (Row 11, lines A-H). Five μl of neat DMSO were added to row 12 (growth and Blank controls).
The inoculum was standardised to approximately 1×10^7 cfu/ml and diluted 1 in 100 in Middlebrook 7H9+ADC medium and 0.025% Tween 80 (Sigma P4780), to produce the final inoculum of H37Rv strain (ATCC25618). One hundred μl of this inoculum was added to the entire plate but G-12 and H-12 wells (Blank controls). All plates were placed in a sealed box to prevent drying out of the peripheral wells and they were incubated at 37° C. without shaking for six days. A resazurin solution was prepared by dissolving one tablet of resazurin (Resazurin Tablets for Milk Testing; Ref 330884Y VWR International Ltd) in 30 ml sterile PBS (phosphate buffered saline). 25 μl of this solution was added to each well. Fluorescence was measured (Spectramax M5 Molecular Devices, Excitation 530 nm, Emission 590 nm) after 48 hours to determine the MIC value.
Background: Resazurin is reduced to fluorescent resorufin, in cell work by metabolically active cells.
On to `O=C1COc2ccc(CNC3CCN(CC4CCN5C(=O)COc6ccc(F)c4c65)CC3)nc2N1` (centres unmarked) [Example 37, 8-Fluoro-7-[(4-{[(3-oxo-3,4-dihydro-2H-pyrido[3,2-b][1,4]oxazin-6-yl)methyl]amino}-1-piperidinyl)methyl]-6,7-dihydro-5H-[1,4]oxazino [2,3,4-ij]quinolin-3(2H)-one dihydrochloride], for which the MIC (in general, the least concentration at which growth counts as inhibited) is at most 1.8 µg/mL.

For `O=C1COc2ccc(CNC3CCN(CC4CCn5c(=O)ccc6ccc(F)c4c65)CC3)nc2N1` (centres unmarked) [Example 11, 10-fluoro-1-[(4-{[(3-oxo-3,4-dihydro-2H-pyrido[3,2-b][1,4]oxazin-6-yl)methyl]amino}-1-piperidinyl)methyl]-2,3-dihydro-1H,5H-pyrido[3,2,1-ij]quinolin-5-one dihydrochloride], the MIC was at most 1.8 µg/mL.

On to `O=C1CSc2ccc(CNC3CCN(CC4CCn5c(=O)ccc6ccc(F)c4c65)CC3)nc2N1` (centres unmarked) [Example 10, 10-fluoro-1-[(4-{[(3-oxo-3,4-dihydro-2H-pyrido[3,2-b][1,4]thiazin-6-yl)methyl]amino}-1-piperidinyl)methyl]-2,3-dihydro-1H,5H-pyrido[3,2,1-ij]quinolin-5-one dihydrochloride], for which the MIC was at most 1.8 µg/mL.

`O=C1COc2ccc(CNC3CCN(CC4CCn5c(=O)sc6ccc(F)c4c65)CC3)nc2N1` (centres unmarked) [Example 32, 7-Fluoro-6-[(4-{[(3-oxo-3,4-dihydro-2H-pyrido[3,2-b][1,4]oxazin-6-yl)methyl]amino}-1-piperidinyl)methyl]-5,6-dihydro-4H-[1,3]thiazolo[5,4,3-ij]quinolin-2-one dihydrochloride] showed an MIC of at most 1.8 µg/mL.

`O=C1COc2ccc(CN[C@H]3CCN(CC4CCn5c(=O)ccc6ccc(F)c4c65)C[C@H]3O)nc2N1` (stereo partly drawn) [Example 17, 10-fluoro-1-[((3R,4S)-3-hydroxy-4-{[(3-oxo-3,4-dihydro-2H-pyrido[3,2-b][1,4]oxazin-6-yl)methyl]amino}-1-piperidinyl)methyl]-2,3-dihydro-1H,5H-pyrido[3,2,1-ij]quinolin-5-one dihydrochloride] registered an MIC of at most 1.8 µg/mL.
